Measured values: patent US5262403A, “Glycosaminoglycan derivatives and their use as inhibitors of tumor invasiveness of metastatic profusion-II” (priority 1990, dated 1993)
“Also recorded” adds a separate entry of the source.

Key:
B16 melanoma heparanase [1] = assay: HPLC assay for heparanase inhibition (14C-HS degradation, gel-permeation chromatography); format: biochemical, mouse; settings: 1 mg/ml in incubation mixture, crude heparanase of 10^6 B16-BL6 cells, 37° C., 6 h
Description: A high-speed gel-permeation chromatography system was equipped with a 0.70×75 cm column of Fractogel TSK-HW55(S). Elution was performed with 0.2M NaCl at a flow rate of 1.0 ml/min at 55° C. Each 0.5-ml fraction corresponding to 30-sec elution was collected, mixed with 3 ml of Hydrofluor and its radioactivity determined. Panel A, ^14 C-HS was incubated with heat-inactivated crude heparanase (10^6 B16-BL6-melanoma cell equivalents) at 37° C. for 6 h, and analyzed. B, same incubation as A except that the enzyme was not heat-inactivated.
High-speed gel permeation chromatography was performed as described previously (Irimura et al., (1983a) Anal. Biochem., V 130, pp 461-468) using a Constametric III (LDC-Milton Roy, Riviera Beach, Fla.) with a single 0.7×75 cm stainless steel column packed with Fractogel TSK HW-55(S). Elution was accomplished with 0.2M sodium chloride at flow rates of 1.0 ml/min or 0.75 ml/min. Absorption at 210 nm was monitored for the analogs of chemically modified heparin. For the qualitative examination of radiolabeled HS-degradation products, each fraction corresponding to 30-sec elution was collected into plastic scintillation vials, and radioactivity in each vial was determined after the fraction was mixed with 3.0 ml of Hydrofluor (National Diagnostics, Somerville, N.J.).
Cell extracts were prepared in 5 mM Tris-HCl buffer, pH 7.4, containing 0.25M sucrose, 50 μM calcium chloride, 10 μM phenylmethylsulfonylfluoride, and 0.2% Nonidet P-40 (Irimura et al., (1983). The melanoma extracts were stored frozen at -80° C. and used as crude heparanase.
High-Performance Liquid Chromatography [HPLC] Assay for Heparanase. Fifty microliters of melanoma extract (equivalent to 10^6 cells) were mixed with chemically modified heparin (5 mg/ml in water), 50 μl of 4×heparanase assay buffer (0.4 sodium phosphate buffer, pH 5.8, containing 0.4% Triton X-100, 0.6M sodium chloride, and 0.4% sodium azide) and about 3000 cpm of ^14 C-HS.

B16 melanoma heparanase [2] = assay: Solid-phase assay for heparanase inhibitors (3H-HS-agarose beads); format: biochemical, mouse; settings: B16-BL6 lysate of 10^6 cells, various concentrations, 37° C.
Description: The measurements were performed by incubating B16-BL6 melanoma heparanase. The measurements were performed by incubating B16-BL6 melanoma cell lysates equivalent to 10^6 cells with a suspension of ^3 H-HS-agarose beads prepared by partial N-desulfation and ^3 H-acetylation (approximately 20% suspension), and various concentrations of heparanase inhibitors at 37° C. for 24 hr with gentle mixing.
Source of Heparanase. Highly invasive mouse B16 melanoma (B16-BL6) cells were provided by Dr. I. J. Fidler, (M.D. Anderson Hospital, Houston, Tex.) and were cultured as previously described (Irimura et al., (1983a) and Irimura et al. (1984)). Cell extracts were prepared in 5 mM Tris-HCl buffer, pH 7.4, containing 0.25M sucrose, 50 μM calcium chloride, 10 μM phenylmethylsulfonylfluoride, and 0.2% Nonidet P-40 (Irimura et al., (1983). The melanoma extracts were stored frozen at -80° C. and used as crude heparanase.
Preparation of Solid-phase Substrates for Heparanase and Inhibitor Assays.
Solid-phase Assays for Heparanase and Heparanase Inhibitors. ^3 H-HS-agarose was suspended in Dulbecco's phosphate buffered saline (DPBS) at about 20% (v/v). The incubation conditions for the solid-phase assay were identical to those of the HPLC assay, except that 75 μl of the ^3 H-HS-agarose suspension was used instead of the HS so that the incubation mixture consisted of B16 melanoma extract, chemically modified heparins, 4×heparanase assay buffer, and ^3 H-HS-agarose suspension. After incubation, the reaction mixture was placed on ice, chilled 5% trichloroacetic acid (50 ul) added, the mixture incubated for 10 min, and centrifuged. Radioactivity in the supernatant and the pellet was determined separately after mixing with Hydrofluor.

B16-BL6 melanoma cells [3] = assay: Experimental blood-borne lung colonization, melanoma cells preincubated with heparins; format: in vivo, C57BL/6 mice; settings: for Number of colonies (median), Exp 1 / Number of colonies (median), Exp 2 / Number of colonies, Exp 1 (individual mice): cells incubated with 500 ug/ml at 4° C. for 2 hr before i.v. injection, lung, 20 days; for Number of colonies, Exp 1 (individual mice): 9 mice/group
Description: Experimental Metastatic Lung Colonization of Melanoma Cells. Male C57BL/6 mice 4 to 6 weeks old were obtained from Charles River, Inc. (Kingston, Md.) and quarantined for 2 weeks. Animals were fed normal rodent chow and unchlorinated spring water. B16-BL6 cells were grown to subconfluence, detached from plastic dishes by incubating in 2 mM EDTA, 0.14M NaCl and 10 mM sodium phosphatebuffer, pH 7.4, for 5-10 min, and suspended in a 1:1 mixture of Dulbecco's modified minimum essential medium and Ham's F12 medium. […] Treated or untreated cells (5×10^4 /0.1 ml) were injected intravenously to each mouse. Mice were killed 20 days later and autopsied. The numbers of pulmonary tumor nodules were counted after the lung was perfused via the trachea with 4% formalin in Dulbecco's phosphate buffered saline. Extrapulmonary tumor formation was assessed in each animal and recorded.

B16-BL6 melanoma = assay: Release of 35S-labeled substances from lung capillary endothelial extracellular matrix by melanoma cells; format: cell-based, mouse; settings: for degradation of sulfated molecules of endothelial matrix by melanoma cells: 35S-labeled matrix, B16-BL6 cells, 37° C., 18 hours
Description: FIG. 6: Effects of chemically modified heparins on the release of ^35 S labeled substances from the extracellular matrix of mouse lung capillary endothelial cells in vitro. […] (See: Nakajima et al., Science 220:611-613, 1983, for the methods.)
Effects of chemically modified heparins on the release of ^35 S-labeled polysaccharides from the extra-cellular matrix of mouse lung endothelial cells were studied in vitro. The endothelial cells isolated from mouse lung capillary were grown in the presence of ^35 S-sulfate, and the extracellular matrix-like material was isolated on multiwell plastic tissue culture plates by hypotonic lysis of the cells. The matrices (1 cm diameter) were incubated with mouse B16-BL6 melanoma at 37° C. for 18 hours. The released radioactivity was counted.

B16-BL6 melanoma cells [4] = assay: 3H-thymidine incorporation, growth of melanoma cells in tissue culture; format: cell-based, mouse; settings: with or without 5% fetal bovine serum; 48 h exposure
Description: FIG. 7: Effects of chemically modified heparins on the incorporation of ^3 H-thymidine to B16-BL6 melanoma cells grown in tissue culture.
In order to assess a possibility that the effects of modified heparins on the blood-borne lung colonization of B16 melanoma cells were due to their direct toxic effects on the cells, the growth of B16 melanoma in the presence or absence of modified heparins were examined in vitro. B16-BL6 melanoma cells were seeded in multiwell tissue culture plates at a density 10,000 per each 1 cm well in the presence or absence of 5% fetal bovine serum. Six hours later, modified heparins were added, then 24 hours later, ^3 H thymidine was added to a final concentration 5 uCi/ml. After further 24 hour incubation, trichloroacetic acid-insoluble materials were collected, dissolved in 1M sodium hydroxide solution, neutralized and counted on a liquid scintillation counter.

B16-BL6 cells = assay: Adhesion of melanoma cells to endothelial cell monolayers; format: cell-based, mouse; settings: B16 cells pretreated 2 hrs, continuous presence of compounds, 37° C.
Description: FIG. 8: Adhesion of B16 melanoma cells to bovine aortic endothelial cell monolayers. FIG. 8(a) B16 melanoma cells were pretreated with modified heparins at room temperature for 2 hrs, and the adhesion assays were performed in the continuous presence of these compounds at 37° C. FIG. 8(b) Endothelial cells were pretreated with modified heparins at 37° C. for 2 hrs, then adhesion assays were performed. (See Nicolson and Custead, (1985) Cancer Res. 45:331-336, for the methods
One of the most critical steps in the tumor cell-microvascular endothelium interaction during metastatic lung colonization of melanoma cells is the adhesive interaction of melanoma cells with endothelial cells. The effects of modified heparins on the adhesion of B16 melanoma to the cell monolayer and to the extracellular matrix of lung capillary endothelial cells were studied in vitro. The endothelial cells were grown in tissue culture and the extracellular matrices were isolated as described in Example 8.

B16-F10 melanoma cells = assay: Invasion of organ-cultured lung tissues by melanoma cells; format: cell-based; settings: organ-cultured minced mouse lung
Source text: FIG. 10: Effects of modified heparins on the B16-F10 melanoma cell-invasionof isolated mouse lung tissues in vitro. The experimental conditions were the same as the adhesion experiments. The invaded cells were counted on 4 μm sections under a light microscope. (See Nicolson et al., (1985) Invasion Metastasis, 5:144-158, for detailed methods.)
The effects of these glycosaminoglycan derivates on organ-specific adhesion and invasion of B16 melanoma cells were studied by using primary organ culture techniques in vitro. Minced lung tissues (0.5-1.0 cubic mm) from C57BL/6 mice were placed in glass vials and incubated in HEPES-buffered Dulbecco's modified minimum essential media containing 10% fetal bovine serum and 50 ug/ml gentamycin under continuous gyration at 66 rpm. After the medium was changed to a fresh medium without gentamycin, B16-F10 melanoma cells were added at a final concentration of 100,000/ml with or without various modified heparins. After various incubation times, the tissues were fixed in buffered formalin and processed for light microscopy. The adhesion and invasion of the tumor cells were examined on […] sections stained with hematoxylin and eosin.

B16 melanoma cells = assay: Blood-borne lung colonization, mice treated i.v. with heparins; format: in vivo, C57BL/6 mice; settings: for Number of lung colonies, Median: 0.1 ml of 5.0 mg/ml i.v. 4 hr before and 20 hr after inoculation of 5×10^4 cells, 20 days; for establishment of metastatic tumor colonies in the lungs, in words: i.v. treatment of mice
Description: Chemically modified heparins were tested in mice as inhibitors of blood-borne lung colonization by melanoma cells. Male C57BL/6 mice 4 to 6 weeks old were obtained from Charles River, Inc. and quarantined for 2 weeks. The mice were intravenously inoculated with 5×10^4 B16-BL melanoma cells. Treated mice were intravenously injected with 0.1 ml each of heparin or chemically modified heparin (5.0 mg/ml) 4 hr before and 20 hr after inoculation with the melanoma cells. The chemically modified heparins used were: N-acetylated N-desulfated heparin; carboxyl-reduced heparin; and N-resulfated N, O-desulfated heparin.
Mice were killed 20 days after tumor inoculation and autopsied. The numbers of pulmonary tumor colonies were counted after the lungs were perfused via the trachea with 4% formalin in Dulbecco's phosphate-buffered saline.

[5] = system: rat mammary adenocarcinoma MTF7; assay: Experimental metastasis of rat mammary adenocarcinoma, rats treated i.v.; format: in vivo, Fischer (F344/CDL) rats; settings: for Lung Metastases per rat, Median No.: 0.1 ml of 10 mg/ml i.v. 8 h before and 16 h after 5×10^4 MTF7 cells, 30 days; for effectiveness against lung tumor colonies of mammary carcinoma, in words: i.v. treatment of rats
Description: Inbred 8-week-old female Fischer (F344/CDL) rats were supplied by the Charles River Breeding Laboratories (Kingston, N.Y.). Animals were quarantined for 7 days before use and feed standard rodent chow and unchlorinated spring water ad libitum. They were maintained under guidelines set forth by the University of Texas M. D. Anderson Cancer Center and the Institute of Laboratory Animal Resources, National Research Council. […] The cells grown at 37° C. in an atmosphere of 5% CO2 in humidified air in an 1:1 mixture of Dulbecco's modified minimum essential media and Ham's F12 media containing 10% fetal bovine serum and no antibiotics in 100 mm-diam. tissue culture plates.
The cells used in this study were in exponential growth phase and were from passages 14 to 20 in vitro and were free of mycoplasma and viral contamination.
Rats (9 per group) were injected i.v. (lateral tail vein) with 0.1 ml of 10 mg/ml solution of heparin, N-acetylated-N-desulfated heparin, or carboxyl-reduced heparin. Eight hours later, the same rats were injected i.v. with 5×10^4 MTF7 mammary carcinoma cells suspended in 0.2 ml serum-free media. Sixteen hours after injections of carcinoma cells, rats were treated with unmodified or chemically modified heparin at the same dose as the previous treatment 8 hours prior to the injection of carcinoma cells.
Rats were killed 30 days after the initial injection of carcinoma cells and examined for the number of lung tumor colonies, that should represent the degree of metastatic spread of mammary carcinoma cells.

melanoma heparanase = settings: cited from earlier work
blood coagulation = assay: Anticoagulation activity by USP standard assay; settings: % of the anticoagulation activity of unmodified heparin
[6] = system: vascular smooth muscle cells; settings: cited from earlier work

Substance | inhibition of degradation of HS by heparanase (HPLC assay) (B16 melanoma heparanase [1]) | heparanase inhibitory activity (solid-phase assay, release of 3H-HS fragments) (B16 melanoma heparanase [2]) | incorporation of 3H-thymidine to B16 cells (B16-BL6 melanoma cells [4]) | Number of colonies (median), Exp 1 (B16-BL6 melanoma cells [3]) | Number of colonies (median), Exp 2 (B16-BL6 melanoma cells [3]) | Number of colonies, Exp 1 (individual mice) (B16-BL6 melanoma cells [3]) | degradation of sulfated molecules of endothelial matrix by melanoma cells (B16-BL6 melanoma) | Number of lung colonies, Median (B16 melanoma cells) | Lung Metastases per rat, Median No. [5] | effectiveness against lung tumor colonies of mammary carcinoma, in words [5] | anticoagulation activity relative to unmodified heparin (blood coagulation) | anti-proliferative (growth inhibitory) activity [6] | also measured
N-acetylated N- and O-desulfated heparin | – | did not, however, restore the inhibitory activity | – | – | – | – | – | – | – | – | – | – | –
N-acetylated N-desulfated heparin | – | partially restored | no significant effects | 43 | 5 | 199 | – | 60 | 29 | also effective | less than 1% | retained full growth inhibitory properties | –
N-desulfated N-resulfated heparin [reference compound] | – | – | – | – | – | – | – | – | – | – | – | retained full growth inhibitory properties | –
carboxy-reduced heparin | – | weaker inhibitory activity than heparin | no significant effects | 29 | 51 | 53 | effectively blocked the degradation | 6 | 25 | also effective | less than 1% | – | establishment of metastatic tumor colonies in the lungs, in words (B16 melanoma cells): most effective

Continued, in another order:

inhibition of degradation of HS by heparanase (HPLC assay) (B16 melanoma heparanase [1]) | heparanase inhibitory activity (solid-phase assay, release of 3H-HS fragments) (B16 melanoma heparanase [2]) | incorporation of 3H-thymidine to B16 cells (B16-BL6 melanoma cells [4]) | Substance | Number of colonies (median), Exp 1 (B16-BL6 melanoma cells [3]) | Number of colonies (median), Exp 2 (B16-BL6 melanoma cells [3]) | Number of colonies, Exp 1 (individual mice) (B16-BL6 melanoma cells [3]) | degradation of sulfated molecules of endothelial matrix by melanoma cells (B16-BL6 melanoma) | Number of lung colonies, Median (B16 melanoma cells) | Lung Metastases per rat, Median No. [5] | effectiveness against lung tumor colonies of mammary carcinoma, in words [5] | anticoagulation activity relative to unmodified heparin (blood coagulation) | anti-proliferative (growth inhibitory) activity [6] | also measured
no degradation was observed | consistent with those of the HPLC assay | no significant effects | Heparin [reference compound] | 16 | 0 | 174 | inhibited the degradation | 30 | 9 | most effective | – | – | number of visible melanoma colonies in lung, in words (B16-BL6 melanoma cells [3]; 20 days after injection of preincubated cells): greater; spontaneous (non-enzymatic) release of 35S labeled macromolecules (B16-BL6 melanoma; in the absence of B16 melanoma cells): apparently induced spontaneous release; also recorded: induced non-enzymatic release; time course of adhesion to endothelial cell monolayer, melanoma cells pretreated (B16-BL6 cells): None of these compounds, including intact heparin, significantly altered; invasion of B16 melanoma cells to lung tissues (B16-F10 melanoma cells): inhibited invasion; establishment of metastatic tumor colonies in the lungs, in words (B16 melanoma cells): inhibited formation of lung metastases; inhibition of HS degradation by B16 cell extracts (melanoma heparanase): inhibited HS degradation
failed to inhibit degradation | failed to how any inhibitory activity | – | N- and O-desulfated heparin | – | – | – | – | – | – | – | – | – | –
partially restored | partial restoration of activity | – | N-resulfated N- and O-desulfated heparin | – | 8 | – | effectively blocked the degradation | 36 | – | – | less than 1% | – | –
failed to inhibit degradation | failed to how any inhibitory activity | – | completely N-desulfated heparin | – | – | – | – | – | – | – | – | lost their anti-proliferative activity | –
